Results taken from patent publication US9089572B2, “Inhibitors of p97” (California Institute of Technology, priority 2008, dated 2015).

Key:
HeLa = experiment: MTT cell growth assay, HeLa; type: cell-based; details: Homo sapiens, 48 or 72 h, read-out: Cell line inhibition of growth GI50 HeLa
Experimental: (§1) To probe further the effect of compound 2 and related compounds 1, 3, 5, 6 and 7, various concentrations of these compounds were added to 13 different cell lines and incubated for 48 or 72 h. An MTT assay was then performed to evaluate cell growth and survival.

PC3 = experiment: MTT cell growth assay, PC3; type: cell-based; details: Homo sapiens, PC-3, 48 or 72 h, read-out: Cell line inhibition of growth GI50 PC3
Experimental: as §1

HeLa cells = experiment: Accumulation of high molecular weight ubiquitin conjugates (anti-ubiquitin immunoblot), HeLa cells; type: cell-based; details: 1 h at 37° C.
Source text: (§2) To evaluate whether compound 2 can target p97 activity in cells, we sought to determine whether this compound induces accumulation of high molecular weight ubiquitin conjugates, since it is known that RNAi-mediated knockdown of p97 in mammalian cells has this effect (Wojcik, C. et al. J. Cell Sci. (2004) 117, 281-292). As a positive control for this experiment, the proteasome inhibitor MG132 was used. […] The cells were then harvested, lysed, and centrifuged to generate soluble and insoluble fractions. These fractions were then immunoblotted with anti-ubiquitin antibodies to detect accumulation of high molecular weight conjugates. Blots were also probed with anti-PSTAIRE antibodies as a loading control. […] This effect is particularly pronounced in the insoluble fraction.
(§3) To evaluate whether compound 8 can target p97 activity in cells, it was determined whether this compound induces accumulation of high molecular weight ubiquitin conjugates, since it is known that RNAi-mediated knockdown of p97 in mammalian cells has this effect (Wojcik, C. et al. J. Cell Sci. (2004) 117, 281-292). The proteasome inhibitor bortezomib (velcade) was employed as a positive control for this experiment. HeLa (FIG. 25) or RPMI8226 (FIG. 26) cells were treated with Velcade, compound 8, or a combination thereof for 1 h at 37° C. The cells were then harvested and cell lysates were immunoblotted with anti-ubiquitin antibodies to detect accumulation of high molecular weight conjugates. Blots were also probed with anti-PSTAIRE antibodies as a loading control.

LNCaP = experiment: MTT cell growth assay, LNCaP; type: cell-based; details: Homo sapiens, 48 or 72 h, read-out: Cell line inhibition of growth GI50 LNCaP
Experimental: as §1

HTC116 WT = experiment: MTT cell growth assay, HTC116 WT; type: cell-based; details: 48 or 72 h, read-out: Cell line inhibition of growth GI50 HTC116 WT
Experimental: as §1

Ub-G76V-GFP/HeLa cells = experiment: Degradation of pre-accumulated Ub-G76V-GFP (cycloheximide chase after MG132 washout); type: cell-based; details: for % K: relative to 0 μM
Experimental: To evaluate this possibility, an assay was developed to determine the rate of degradation of pre-accumulated Ub-G76V-GFP molecules. […] Cells were then washed with PBS three times remove the MG132. Cells were then refreshed by adding DMEM containing cycloheximide (50 μg/mL; to block production of more Ub-G76V-GFP) and test compounds (0˜10 μM) were added into cells. Eight 96-well plates were prepared and one of the plates was imaged at 25, 50, 70, 100, 110, 125, 145, or 170 min after washing with PBS three times. After washing out MG132, degradation of pre-accumulated Ub-G76V-GFP appears to follow pseudo-first order reaction. Rate constant (K; 1/min) can be determined from the slope of plotting Ln (Fold Accumulation) versus Time (min) (see FIG. 17 and FIG. 18).
Ub-G76V-GFP/HeLa cells were treated with MG132 (2 μM) for 1 h and washed with PBS three times. DMEM containing cycloheximide (50 μg/mL) and compound 8 (0-10 μM) was added into cells. Eight 96-well plates were prepared and one of the plates was imaged at 25, 50, 70, 100, 110, 125, 145, or 170 min after washing with PBS three times.

CCRF-CEM = experiment: MTT cell growth assay, CCRF-CEM; type: cell-based; details: Homo sapiens, 48 or 72 h, read-out: Cell line inhibition of growth GI50 CCRF-CEM
Experimental: as §1

13 different cell lines = experiment: MTT cell growth assay, summary across 13 different cell lines; type: cell-based; details: vs compound 2, 13 cell lines
Experimental: as §1
Data for the assay with MCF-7 cells and HeLa cells is shown in FIG. 21 and FIG. 22, respectively. […] Thus, compound 2 blocks p97-dependent processes in cells and also blocks the proliferation of cancer cell lines, illustrating its potential utility as an anti-proliferative drug to treat cancer.

MDAMB-231 = experiment: MTT cell growth assay, MDAMB-231; type: cell-based; details: Homo sapiens, MDA-MB-231, 48 or 72 h, read-out: Cell line inhibition of growth GI50 MDAMB-231
Experimental: as §1

DU145 = experiment: MTT cell growth assay, DU145; type: cell-based; details: Homo sapiens, DU-145, 48 or 72 h, read-out: Cell line inhibition of growth GI50 DU145
Experimental: as §1

MCF7 = experiment: MTT cell growth assay, MCF7; type: cell-based; details: Homo sapiens, 48 or 72 h, read-out: Cell line inhibition of growth GI50 MCF7
Experimental: as §1

293 = experiment: MTT cell growth assay, 293; type: cell-based; details: Homo sapiens, HEK293, 48 or 72 h, read-out: Cell line inhibition of growth GI50 293
Experimental: as §1

RPMI8226 = experiment: MTT cell growth assay, RPMI8226; type: cell-based; details: Homo sapiens, RPMI-8226, 48 or 72 h, read-out: Cell line inhibition of growth GI50 RPMI8226
Experimental: as §1

Molt4 = experiment: MTT cell growth assay, Molt4; type: cell-based; details: Homo sapiens, MOLT-4, 48 or 72 h, read-out: Cell line inhibition of growth GI50 Molt4
Experimental: as §1

HCT116 p53−/− = experiment: MTT cell growth assay, HCT116 p53−/−; type: cell-based; details: Homo sapiens, HCT-116, 48 or 72 h, read-out: Cell line inhibition of growth GI50 HCT116 p53−/−
Experimental: as §1

wild type murine p97 = wild type murine p97 (Mus musculus, UniProt Q01853); experiment: In vitro ATP hydrolysis (malachite green ATPase assay), wild type murine p97; type: biochemical; details: 200 nM p97, 20 min preincubation at 23° C., malachite green; read-out: In vitro ATP Hydrolysis Activity IC50 WT-mP97
Chain of wild type murine p97 (Q01853 whole entry): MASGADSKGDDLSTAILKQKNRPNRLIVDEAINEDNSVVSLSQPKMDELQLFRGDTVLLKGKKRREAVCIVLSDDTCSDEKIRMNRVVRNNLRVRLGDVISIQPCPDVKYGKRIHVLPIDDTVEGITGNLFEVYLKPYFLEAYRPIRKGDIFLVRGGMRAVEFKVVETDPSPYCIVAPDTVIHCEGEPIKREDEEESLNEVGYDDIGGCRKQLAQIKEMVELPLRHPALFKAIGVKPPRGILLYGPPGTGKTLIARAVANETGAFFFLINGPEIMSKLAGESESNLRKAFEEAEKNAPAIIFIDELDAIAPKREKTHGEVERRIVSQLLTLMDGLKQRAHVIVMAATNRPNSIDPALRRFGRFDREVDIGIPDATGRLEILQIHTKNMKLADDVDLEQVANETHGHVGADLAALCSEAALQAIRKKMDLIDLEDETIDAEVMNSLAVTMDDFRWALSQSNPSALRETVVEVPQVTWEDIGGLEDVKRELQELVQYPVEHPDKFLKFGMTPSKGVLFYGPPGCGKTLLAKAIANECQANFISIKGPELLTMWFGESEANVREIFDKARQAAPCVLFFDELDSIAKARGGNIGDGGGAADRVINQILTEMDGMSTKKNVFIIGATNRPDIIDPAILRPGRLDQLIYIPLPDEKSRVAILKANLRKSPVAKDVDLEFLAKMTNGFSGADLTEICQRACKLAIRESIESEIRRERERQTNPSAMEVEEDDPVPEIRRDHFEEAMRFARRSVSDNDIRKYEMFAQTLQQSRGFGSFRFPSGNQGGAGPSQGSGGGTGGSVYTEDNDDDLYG
Experimental: Compounds were tested for their ability to inhibit the ATPase activity of purified wild type murine p97 and T532C-Cdc48, a mutant of yeast Cdc48 in which the residue analogous to cysteine 522, threonine 532, was converted to cysteine.

RPMI8226 cells = experiment: Accumulation of high molecular weight ubiquitin conjugates (anti-ubiquitin immunoblot), RPMI8226 cells; type: cell-based; details: 1 h at 37° C.
Source text: as §2, §3

RL = experiment: MTT cell growth assay, RL; type: cell-based; details: Homo sapiens, 48 or 72 h, read-out: Cell line inhibition of growth GI50 RL
Experimental: as §1

wild type p97 = wild type p97 (Mus musculus, UniProt Q01853); experiment: ATP Kinase glo assay of p97 ATPase activity; type: biochemical
Chain of wild type p97 (Q01853 whole entry): as above
Experimental: An assay that measures the ATPase activity of p97 and that is amenable to high-throughput screening (HTS) was developed based on the commercially-available “Kinase-Glo” assay format, wherein the ATP hydrolytic activity of p97 is monitored by using luciferase to measure the level of residual ATP in a sample following incubation with p97. Using this assay, circa 16,000 compounds were screened to evaluate their effect on the ATP hydrolysis activity of p97. This effort yielded several candidates that inhibit p97 activity. Among the compounds that were identified, one that was of particular interest was compound 8 (9-(2-nitrovinyl) anthracene shown below:
It was shown that a key feature of compound 8 is that its mode of inhibition is dependent upon the presence of a cysteine at position 522 in the D2 domain of p97.

[1] = test system: HeLa cell line that stably expresses UbG76V-GFP; experiment: Accumulation of UbG76V-GFP in HeLa cells (fluorescence microscopy); type: cell-based; details: 1 h at 37° C., fluorescence microscopy
Experimental: As a control, the same cells were treated with the proteasome inhibitor MG132. In the latter set of experiments, a HeLa cell line that stably expresses UbG76V-GFP was transfected with either wild type (WT), D1 mutant (E305Q), D2 mutant (E578Q) or E305Q, E578Q double mutant (QQ) murine 97-pcDNA4.1 plasmid (0.05 μg/100 μL) in a 96-well plate. After 23 h, the intensity of UbG76V-GFP signal was measured on a Molecular Devices ImageXpress automated fluorescence microscope. […] The direct accumulation of Ub-G76V-GFP caused by compound 2 at 25 μM is 4-fold less than that caused by MG132 at 2 μM. This is likely due to the fact that only fully folded Ub-G76V-GFP should require p97 for degradation by the proteasome.
As a second test of whether compound 8 can inhibit p97 in vivo, it was evaluated whether it can cause accumulation of the UbG76V-GFP reporter. A HeLa cell line that stably expresses UbG76V-GFP was treated with compound 8 for 1 h at 37° C., and was then evaluated by fluorescence microscopy. As a control, the same cells were treated with the proteasome inhibitor MG132. […] The level of GFP fluorescence was quantified in cells treated with compound 8 at different doses and for different periods of time (FIG. 28).

MRC5-WT = experiment: CellTiter-Glo growth inhibition, parental MRC5 cells; type: cell-based; details: Homo sapiens, 48 h at 37° C., read-out: Cell line inhibition of growth GI50 MRC5-WT
MRC5-SV40 = experiment: CellTiter-Glo growth inhibition, MRC5 cells engineered to express SV40; type: cell-based
[2] = test system: HEK293 cells that stably expressed TCR-GFP; experiment: Accumulation of ERAD reporter TCR-alpha-GFP; type: cell-based; details: 2 h at 37° C., fluorescence microscopy
Experimental: Since p97 has a well-established role in ERAD, it was also determined whether compound 2 affects the accumulation of an ERAD-reporter, TCR-alpha-GFP. HEK293 cells that stably expressed TCR-GFP were treated with MG132 (see FIG. 19), compound 1 or compound 2 (FIG. 20) at the indicated concentrations for 2 h at 37° C. prior to being imaged by fluorescence microscopy to determine TCR-GFP accumulation. […] It was thus concluded that compound 2 inhibits p97 in cells, resulting in the accumulation of both soluble and insoluble high molecular weight ubiquitin conjugates and UPS substrates whose degradation depends upon p97.
HEK293 cells that stably expressed TCR-GFP were treated with the Velcade (FIG. 30) or compound 8 (FIG. 31) at the indicated concentrations for 2 h at 37° C. prior to being imaged by fluorescence microscopy to quantify TCR-GFP accumulation.

CC(C)(C)n1nc(-c2ccccc2)c2c(N)ncnc21 [Compound 1]
GI50 (HeLa): 2 ± 1 µM | GI50 (PC3): 11 ± 1 µM | accumulation of high molecular weight ubiquitin conjugates, HeLa cells (HeLa cells): not | GI50 (LNCaP): 38 ± 8 µM | GI50 (HTC116 WT): 10 ± 2 µM | effect on the decay of Ub-G76V-GFP (Ub-G76V-GFP/HeLa cells; up to 10 μM): no effect | GI50 (CCRF-CEM): 15 ± 5 µM | GI50 higher than that of compound 2 across the same cell lines (13 different cell lines): 3 to 18 fold | GI50 (MDAMB-231): 19 ± 8 µM | GI50 (DU145): 18 ± 4 µM | GI50 (MCF7): 4 ± 2 µM | GI50 293: 92 ± 14 µM | GI50 (RPMI8226): 1.1 ± 0.7 µM | GI50 (Molt4): 7.4 ± 4.7 µM | GI50 (HCT116 p53−/−): 12 ± 4 µM | IC50 (wild type murine p97): > 100 µM | accumulation of high molecular weight ubiquitin conjugates, RPMI8226 cells (RPMI8226 cells): not | GI50 (RL): 21 ± 10 µM

O=[N+]([O-])C=Cc1c2ccccc2cc2ccccc12 [Compound 8, 9-(2-nitrovinyl) anthracene]
inhibition of wild type p97 compared with the C522A-p97 mutant (wild type p97): significantly greater degree | accumulation of UbG76V-GFP [1]: caused detectable accumulation of UbG76V-GFP | accumulation of high molecular weight ubiquitin conjugates, HeLa cells (HeLa cells): caused accumulation of high molecular weight ubiquitin conjugates | K, rate constant of Ub-G76V-GFP degradation (Ub-G76V-GFP/HeLa cells; 0.01 μM): 0.034 min⁻¹ | % K (Ub-G76V-GFP/HeLa cells; 0.01 μM): 89% | K, rate constant of Ub-G76V-GFP degradation (Ub-G76V-GFP/HeLa cells; 0.04 μM): 0.033 min⁻¹ | % K (Ub-G76V-GFP/HeLa cells; 0.04 μM): 87% | K, rate constant of Ub-G76V-GFP degradation (Ub-G76V-GFP/HeLa cells; 0.16 μM): 0.032 min⁻¹ | % K (Ub-G76V-GFP/HeLa cells; 0.16 μM): 85% | K, rate constant of Ub-G76V-GFP degradation (Ub-G76V-GFP/HeLa cells; 0.63 μM): 0.031 min⁻¹ | % K (Ub-G76V-GFP/HeLa cells; 0.63 μM): 81% | K, rate constant of Ub-G76V-GFP degradation (Ub-G76V-GFP/HeLa cells; 2.5 μM): 0.027 min⁻¹ | % K (Ub-G76V-GFP/HeLa cells; 2.5 μM): 71% | K, rate constant of Ub-G76V-GFP degradation (Ub-G76V-GFP/HeLa cells; 10 μM): 0.023 min⁻¹ | % K (Ub-G76V-GFP/HeLa cells; 10 μM): 60% | IC50 (Ub-G76V-GFP/HeLa cells; Homo sapiens, HeLa, 1 h, read-out: IC50 on the decay of Ub-G76V-GFP): 10 ± 4 µM | GI50 (MRC5-WT): 17 ± 9 µM | GI50 (MRC5-SV40; Homo sapiens, MRC5, 48 h at 37° C., CellTiter-Glo, read-out: Cell line inhibition of growth GI50 MRC5-SV40): 5 ± 3 µM | greater sensitivity of SV40-transformed cells than WT cell line (MRC5-SV40; MRC5-SV40 vs MRC5-WT GI50): 3.4 fold | accumulation of TCR-alpha-GFP [2]: induced accumulation of the ERAD reporter, TCR-alpha-GFP | accumulation of high molecular weight ubiquitin conjugates, RPMI8226 cells (RPMI8226 cells): caused accumulation of high molecular weight ubiquitin conjugates
